Measured values reported in publication PMC11784145, “Efficacy and in vitro pharmacological assessment of novel N-hydroxypyridinediones as hepatitis B virus ribonuclease H inhibitors” (Antimicrobial Agents and Chemotherapy, 2024).

Assays:
Microsome stability = format: in vitro ADME, human; conditions: human, microsomes
Method: Human liver microsomes (gender pooled, 50 individuals) were purchased from BioIVT and stored at −80°C until use. […] Reactions were initiated by addition of 1.2 mM NADPH. […] Microsomal proteins were pelleted at 4,000 × g and the supernatant was analyzed via LCMS/MS. […] The ln percent remaining values were plotted against time, the negative slope was taken (k), and compound half-life (t1/2) was determined using ln2/k. Intrinsic clearance (Clint [µL/min/mg]) was calculated by (V × ln2)/t1/2, where V is the incubation volume (µL) divided by the protein concentration in the reaction (mg) ([31]).

[1] = Parallel artificial membrane permeability assay (PAMPA); format: in vitro ADME
Method: Compound Papp values were determined by normalizing the experimental compound absorbance to the compounds’ absorbances at equilibrium, membrane porosity, buffer volume, and time (s). Two or more replicate assays were obtained on separate days for each pH.

HepDES19 cells = conditions: read-out: HepDES19 CC50; 72 h, MTS; highest concentration tested 100 µM; mean ± SD
Method: HepDES19 cells were plated on 96-well tissue culture-treated plates (Greiner) at 1.0 × 10^4 cells per well and incubated for 48 h. Cells were treated with titrated concentrations of compound or 1% DMSO vehicle for 72 h, and cellular viability was measured by 3-(4,5-dimethylthiazol-2-yl)−5-(3-carboxymethoxyphenyl)−2-(4-sulfophenyl)−2H-tetrazolium (MTS) assays, as described previously ([20]). […] Three or more replicate assays were done on different days.

[2] = target: T1, human ribonuclease H1 (huRNase H1) (Homo sapiens, UniProt O60930); test: Human RNase H1 inhibition, fluorescent biochemical assay; conditions: for IC50: recombinant huRNase H1, RNA:DNA heteroduplex substrate
T1 construct: made in house; host or cells: Escherichia coli
T1 sequence (O60930 1-286): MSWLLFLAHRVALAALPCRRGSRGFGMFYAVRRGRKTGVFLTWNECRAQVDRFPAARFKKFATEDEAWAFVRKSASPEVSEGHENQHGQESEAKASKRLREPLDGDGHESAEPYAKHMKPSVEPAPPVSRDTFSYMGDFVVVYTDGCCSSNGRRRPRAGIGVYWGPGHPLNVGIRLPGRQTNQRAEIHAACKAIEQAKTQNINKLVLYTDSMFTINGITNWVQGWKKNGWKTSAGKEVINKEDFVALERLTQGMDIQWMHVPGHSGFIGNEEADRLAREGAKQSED
Method: Recombinant human ribonuclease H1 (huRNase H1) was expressed in Escherichia coli and purified by nickel affinity chromatography, as described previously ([30]). […] The heteroduplex substrate was prepared, as described by Ponzar et al. ([30]). Reactions were initiated by the addition of MgCl2 (5 mM final) and were performed on a Biotek Synergy HTX multi-mode plate reader at 28°C.
Maximum rates of fluorescence increase were calculated using the Biotek Gen5 v3.15 software and percentage activity was determined for each compound concentration by subtracting rates from no enzyme reactions and normalizing to DMSO reactions. […] Reactions were performed at least three times on separate days.

[3] = system: HBV replication (HBV plus-polarity DNA strand); test: HBV replication inhibition, strand preferential qPCR in hepDES19 cells; format: cell-based, hepatitis B virus; conditions: for EC50: 72 h exposure, HBV plus-polarity strand suppression, highest concentration tested 100 µM, mean ± SD, read-out: HepDES19 EC50
Method: HBV replication inhibition was measured in hepDES19 cells following 72 h compound exposure without compound replenishment. EC50 values were determined by HBV plus-polarity strand suppression using a strand preferential qPCR assay, as described previously ([28]). Three or more replicate values were obtained on different days.

[4] = Solubility limit, turbidimetric assay; format: physicochemical; conditions: upper limit 200 µM
Method: Solubility limits were determined by a turbidimetric assay, as described ([27]), with the solubility limit being defined as the compound concentration where light scattering began to rise. Two or more replicate assays were performed for each compound at each pH on different days.

MDCK-MDR1 cells = test: MDCK-MDR1 permeability assay; format: in vitro ADME; conditions: MDCK-MDR1 cells, 10 µM compound, 2 h; actively effluxed if >2
Method: MDCK-MDR1 cells were seeded on 96-well, high protein binding immobilon-P membrane plates (Millipore Sigma) at 2.4 × 10^4 cells per well for 4 days. Media were then decanted, and the cells were equilibrated with Hanks balanced salt solution (HBSS) supplemented with 10 mM CaCl2 and 1 mM MgCl2 for 1 h. Compound (10 µM) was then added to the apical side to assess active transport and to the basolateral side to assess active efflux. The cells were incubated with compound for 2 h with shaking at 37°C. Samples (50 µL) were retrieved from the recipient wells and mixed with 150 µL acetonitrile (ACN) and internal standard (1:1 of 200 ng/mL chloridazon:enalapril). Samples were pelleted at 4,000 × g and the supernatant was analyzed by liquid-chromatography/tandem mass spectrometry (LCMS/MS) analyses. […]. Active efflux was determined by Papp B/A/Papp A/B.
Tight junction formation was assessed by lucifer yellow permeation immediately following sample retrieval. Briefly, lucifer yellow (10 µM) was added to the apical wells and HBSS was added to the basolateral wells for 1 h with shaking at 37°C, after which sample was collected from the basolateral side and read on a Biotek Synergy HTX multi-mode plate reader with 485/20 excitation and 520/20 emission filters defined by the Center Wavelength/band-pass values. The percent lucifer yellow fluorescence was determined by subtracting the HBSS relative fluorescent units (RFU) from the sample RFU and normalizing to the lucifer yellow positive control RFU. Lucifer yellow permeation was determined to be acceptable if ≤3%.

[5] = pH 5 (fed simulated intestinal fluid)
[6] = pH 6.5 (fasted simulated intestinal fluid)

| SMILES | Avg Papp (PAMPA) ([1]; FeSSIF pH 5) | Interpretation (PAMPA Papp) ([1]; FeSSIF pH 5) | Papp 1 (PAMPA) ([1]; FeSSIF pH 5, replicate 1) | Papp 2 (PAMPA) ([1]; FeSSIF pH 5, replicate 2) | Avg Papp (PAMPA) ([1]; pH 7.4) | Interpretation (PAMPA Papp) ([1]; pH 7.4) | Papp 1 (PAMPA) ([1]; pH 7.4, replicate 1) | Papp 2 (PAMPA) ([1]; pH 7.4, replicate 2) | Papp 3 (PAMPA) ([1]; pH 7.4, replicate 3) | CC50 (HepDES19 cells) | HepDES19 SI (CC50/EC50) [3] | EC50 [3] | Average Sol (solubility limit) [4, 5] | Sol 1 (solubility limit) ([4]; pH 5, replicate 1) | Sol 2 (solubility limit) ([4]; pH 5, replicate 2) | Average Sol (solubility limit) [4, 6] | Sol 1 (solubility limit) ([4]; pH 6.5, replicate 1) | Sol 2 (solubility limit) ([4]; pH 6.5, replicate 2) | Average Sol (solubility limit) ([4]; pH 7.4 (DMEM-F12 with 10% FBS)) | Sol 1 (solubility limit) ([4]; pH 7.4, replicate 1) | further results |
| --- | --- | --- | --- | --- | --- | --- | --- | --- | --- | --- | --- | --- | --- | --- | --- | --- | --- | --- | --- | --- | --- |
| CC(=NOCc1ccc(C)cc1)c1c(C)cc(=O)n(O)c1O [Compound 1462] | 10.1 ×10⁻⁶ cm/s | H (H: Papp > 1*10-6) | 14.7 ×10⁻⁶ cm/s | 5.56 ×10⁻⁶ cm/s | 1.44 ×10⁻⁶ cm/s | H (H: Papp > 1*10-6) | 0.513 ×10⁻⁶ cm/s | 0.971 ×10⁻⁶ cm/s | 2.84 ×10⁻⁶ cm/s | 33100 ± 5240 nM | 112 | 295 ± 122 nM | > 200 µM | > 200 µM | > 200 µM | > 200 µM | > 200 µM | > 200 µM | > 200 µM | > 200 µM | Clearance (intrinsic clearance, Clint) (Microsome stability): 34.8 µL/min/mg; Half-life (Microsome stability): >30 min; Selectivity of HBV replication inhibition over huRNase H1 (huRNase H1 IC50 versus HBV EC50) [2]: at least 10 fold; Sol 2 (solubility limit) ([4]; pH 7.4, replicate 2): > 200 µM; Efflux Ratio (Papp B-A/A-B) (MDCK-MDR1 cells): 1.31 |
| CC(=NOCc1ccc(Cl)cc1)c1c(C)cc(=O)n(O)c1O [Compound 1466] | 20.4 ×10⁻⁶ cm/s | H (H: Papp > 1*10-6) | 23.2 ×10⁻⁶ cm/s | 17.6 ×10⁻⁶ cm/s | 1.69 ×10⁻⁶ cm/s | H (H: Papp > 1*10-6) | 0.299 ×10⁻⁶ cm/s | 2.48 ×10⁻⁶ cm/s | 2.29 ×10⁻⁶ cm/s | 46600 ± 13600 nM | 130 | 359 ± 240 nM | > 200 µM | > 200 µM | > 200 µM | > 200 µM | > 200 µM | > 200 µM | > 200 µM | > 200 µM | Half-life (Microsome stability): >30 min; Selectivity of HBV replication inhibition over huRNase H1 (huRNase H1 IC50 versus HBV EC50) [2]: at least 10 fold; Sol 2 (solubility limit) ([4]; pH 7.4, replicate 2): > 200 µM |
| CC(=NOCc1ccc(OCc2ccccc2)cc1)c1c(C)cc(=O)n(O)c1O [Compound 1738] | 25.9 ×10⁻⁶ cm/s | H (H: Papp > 1*10-6) | 19.9 ×10⁻⁶ cm/s | 42.6 ×10⁻⁶ cm/s | 5.42 ×10⁻⁶ cm/s | H (H: Papp > 1*10-6) | 1.34 ×10⁻⁶ cm/s | 9.64 ×10⁻⁶ cm/s | 9.47 ×10⁻⁶ cm/s | 51400 ± 19200 nM | 6.53 | 7490 ± 1730 nM | > 200 µM | > 200 µM | > 200 µM | > 200 µM | > 200 µM | > 200 µM | 167 µM | > 200 µM | Papp 3 (PAMPA) ([1]; FeSSIF pH 5, replicate 3): 3.74 ×10⁻⁶ cm/s; Papp 4 (PAMPA) ([1]; FeSSIF pH 5, replicate 4): 37.3 ×10⁻⁶ cm/s; Papp 4 (PAMPA) ([1]; pH 7.4, replicate 4): 1.23 ×10⁻⁶ cm/s; IC50 [2]: 560 nM; Sol 2 (solubility limit) ([4]; pH 7.4, replicate 2): 100 µM; Sol 3 (solubility limit) ([4]; pH 7.4, replicate 3): > 200 µM |
| CC(=NOCc1cc(F)ccc1F)c1c(C)cc(=O)n(O)c1O [Compound 1810] | 20.7 ×10⁻⁶ cm/s | H (H: Papp > 1*10-6) | 17.2 ×10⁻⁶ cm/s | 24.2 ×10⁻⁶ cm/s | 3.23 ×10⁻⁶ cm/s | H (H: Papp > 1*10-6) | 1.13 ×10⁻⁶ cm/s | 2.26 ×10⁻⁶ cm/s | 7.59 ×10⁻⁶ cm/s | > 100000 nM | 54.0 | 1850 ± 758 nM | 167 µM | 100 µM | > 200 µM | 100 µM | 100 µM | 100 µM | 167 µM | > 200 µM | Papp 4 (PAMPA) ([1]; pH 7.4, replicate 4): 1.29 ×10⁻⁶ cm/s; Papp 5 (PAMPA) ([1]; pH 7.4, replicate 5): 3.89 ×10⁻⁶ cm/s; IC50 [2]: 820 nM; Sol 3 (solubility limit) ([4]; pH 5, replicate 3): > 200 µM; Sol 2 (solubility limit) ([4]; pH 7.4, replicate 2): 100 µM; Sol 3 (solubility limit) ([4]; pH 7.4, replicate 3): > 200 µM |
